Measured values from patent US11014898B1, “Benzothiazepine compounds and their use as bile acid modulators” (Albireo AB, priority 2020, dated 2021).

Assays:
Human IBAT = target: T1, Human IBAT (Homo sapiens, UniProt Q12908); assay: IBAT (h) assay: 3H-taurocholic acid uptake in human IBAT-overexpressing cells; format: cell-based; conditions: 0.25 μM 3H-taurocholic acid and 5 μM cold taurocholic acid, 20 minutes, read-out: hIBAT IC50
T1 construct: expressed in transfected cells; cells kept under Puromycin selection
T1 sequence (Q12908 1-348): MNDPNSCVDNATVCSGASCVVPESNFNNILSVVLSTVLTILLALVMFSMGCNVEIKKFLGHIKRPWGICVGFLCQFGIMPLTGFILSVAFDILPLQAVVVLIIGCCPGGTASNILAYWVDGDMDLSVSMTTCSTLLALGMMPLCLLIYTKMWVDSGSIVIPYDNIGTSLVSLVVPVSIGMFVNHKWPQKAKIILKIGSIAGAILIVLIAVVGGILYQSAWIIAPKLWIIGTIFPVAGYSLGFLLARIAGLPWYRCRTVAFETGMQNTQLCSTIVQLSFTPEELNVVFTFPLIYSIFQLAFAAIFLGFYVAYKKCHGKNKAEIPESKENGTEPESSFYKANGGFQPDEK
Procedure: 10,000 cells (Human or Mouse IBAT-overexpressing cells) were seeded in 96-wells plate (Corning CLS3809) in 200 μL MEM-alpha medium (Gibco 12571-063) supplemented with 10% FBS (Gibco 10438026) containing Puromycin (Gibco A1113803) (10 μg/mL) and incubated at 37° C. in 5% CO2 for 48 hours. After incubation, media was decanted from the wells and cells were washed two times with 300 μL of basal MEM-alpha medium (FBS-free). After decanting basal MEM-alpha medium each time, plates were tapped against paper towel to ensure maximum removal of residual media. Test inhibitor dilutions (highest test concentration being 10 μM, 3-fold serial dilution, 10 points) prepared in DMSO (Sigma D2650) were added in incubation mix (maintaining 0.2% final DMSO concentration) containing 0.25 μM 3H-taurocholic acid (ARC ART-1368) and 5 μM of cold taurocholic acid (Sigma T4009). 50 μL of incubation mix containing test inhibitors was then added to the wells (in duplicate) and the plates were incubated for 20 minutes in a CO2 incubator at 37° C. After incubation, the reaction was stopped by keeping the plates on ice water mix for 2-3 minutes and then the incubation mix was aspirated completely from the wells. The wells were washed two times with 250 μL of chilled unlabelled 1 mM taurocholic acid dissolved in HEPES (Gibco 15630080)-buffered (10 mM) HBSS (Gibco 14175079) (pH 7.4). The plates were tapped against a paper towel after every wash to ensure maximum removal of blocking buffer.
(§1) 100 μL of MicroScint-20 (PerkinElmer 6013621) was added to the wells and kept overnight at room temperature before reading the plates in TopCount NXT™ Microplate Scintillation and Luminescence Counter from PerkinElmer under 3H Test protocol (set at 120 seconds reading time per well).
(§2) All test compounds were provided in powder form at room temperature. 10 mM DMSO stocks of the test compounds were prepared, aliquoted and stored at −20° C. From the 10 mM DMSO stock of the compounds, a 3-fold serial dilution in DMSO was prepared to get a total of 10 dilutions of the test compounds. 0.5 μL of this dilution in DMSO was added to 250 μL of FBS-free basal media containing 3H-taurocholic acid and cold taurocholic acid to prepare the incubation mixture.

[1] = Bidirectional permeability assay (Caco-2 cells); format: in vitro ADME; conditions: human, Caco-2, pH 7.4, 10 μM in FaSSIF buffer, 120 minutes at 37° C.; for Papp A→B at 120 min, 10 μM: absorptive direction (A2B); for Papp B→A at 120 min, 10 μM: secretory direction (B2A)
Procedure: Caco-2 cells (Evotec) were seeded at a density of 70,000 cells/well in Millicell® 24-well cell culture insert plates and maintained in an incubator (37° C., 5% CO2, 95% RH) for 21 days with media change on alternate days.
Stock solutions (10 mM) of the test compounds, atenolol (low permeability marker), propranolol (high permeability marker) and digoxin (substrate for P-gp transport pathway) were prepared in dimethylsulfoxide (DMSO). An intermediate stock solution (1 mM) was prepared by diluting 10 μL of 10 mM master stock solution with 90 μL of neat DMSO. A working stock solution (10 μM) was prepared by diluting 50 μL of 1 mM with 4950 μL of FaSSIF buffer. Post addition of compounds to the FaSSIF, samples were subjected to sonication for 2 hours, and centrifuged at 4000 RPM for 30 minutes at 37° C. The 4 mL of resultant supernatant was directly used in the assay. The final DMSO concentration in the transport experiments was 1%.
On the day of assay, Caco-2 monolayers were washed twice with transport buffer (HBSS, pH 7.4) and pre-incubated for 30 min (37° C., 5% CO2, 95% RH) in an incubator. The electrical resistance of the monolayers was measured with a Millicell®-ERS system. Monolayers with trans-epithelial electrical resistance (TEER) values greater than 350 ohm·cm^2 were selected for the assay.
The assay was conducted in absorptive direction (A2B) and secretory (B2A) directions. Transport experiments were initiated by addition of transport assay buffer (FaSSIF buffer prepared in HBSS) consisting of compounds to the donor compartment (apical chamber A-B; basolateral chamber B-A) in duplicate (n=2) wells. Drug free HBSS buffer (pH 7.4) containing 1% bovine serum albumin (BSA) was introduced to the receiver (A-B-basolateral; B-A-Apical) compartments. The volumes of apical and basolateral compartments were 0.4 and 0.8 mL, respectively. After adding dosing solution, plates were incubated in an incubator for 120 minutes at 37° C. After 120 minutes, donor and receiver samples were collected and matrix matched (1:1, 30 μL study sample+30 μL blank buffer) with the opposite buffer. Dosing samples matrix matched (1:1, 30 μL study sample+30 μL blank buffer) with the opposite buffer. Samples were processed by adding acetonitrile containing internal standard (60 μL study sample+200 μL acetonitrile containing internal standard-Tolbutamide, 500 ng/mL). Samples were vortexed and centrifuged at 4000 rpm for 10 minutes. The obtained supernatant (100 μL) was diluted with 100 μL of water and transferred to fresh 96 well plates. The concentration of compounds in the samples was analyzed by liquid chromatography tandem mass spectrometry (LC-MS/MS) method using discovery grade bio-analytical method, as applicable.
The mean apparent permeability (Papp×10^−6 cm/sec) of the test compounds, atenolol, propranolol and digoxin were calculated as follows:
where dq/dt=rate of transport (rate of transport of compound in the receiver compartment), C0=initial concentration in the donor compartment, A=surface area of the effective filter membrane.

Human LBAT = target: T2, Human LBAT (Homo sapiens, UniProt Q14973); assay: LBAT (h) assay: 3H-taurocholic acid uptake in human LBAT-overexpressing cells; format: cell-based; conditions: 0.3 μM 3H-taurocholic acid and 7.5 μM cold taurocholic acid, 20 minutes, read-out: hLBAT IC50
T2 construct: expressed in transfected cells; cells kept under Geneticin selection
T2 sequence (Q14973 1-349): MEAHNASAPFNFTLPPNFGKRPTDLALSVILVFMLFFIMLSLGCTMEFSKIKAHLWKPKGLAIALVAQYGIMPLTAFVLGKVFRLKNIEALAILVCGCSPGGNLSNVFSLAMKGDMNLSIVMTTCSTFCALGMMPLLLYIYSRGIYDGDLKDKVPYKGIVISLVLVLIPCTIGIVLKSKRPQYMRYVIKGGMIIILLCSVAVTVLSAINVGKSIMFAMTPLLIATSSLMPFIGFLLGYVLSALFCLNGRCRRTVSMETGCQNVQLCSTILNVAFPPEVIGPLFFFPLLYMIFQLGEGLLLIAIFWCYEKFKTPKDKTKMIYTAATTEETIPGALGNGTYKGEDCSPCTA
Procedure: 20,000 cells (Human or Mouse LBAT-overexpressing cells) were seeded in 96-wells plate (Corning CLS3809) in 100 μL MEM-alpha medium (Gibco 12571-063) supplemented with 10% FBS (Gibco 10438026) containing Geneticin (Gibco 10131-027) (1 mg/mL) and incubated at 37° C. in 5% CO2 for 24 hours. After incubation, media was decanted from the wells and cells were washed two times with 300 μL of basal MEM-alpha medium (FBS-free). After decanting basal MEM-alpha medium each time, plates were tapped against paper towel to ensure maximum removal of residual media. For human LBAT, incubation mix was prepared by adding test inhibitor dilutions (3-fold serial dilution in DMSO (Sigma D2650), 10 points) in MEM-alpha (without FBS) containing 0.3 μM 3H-taurocholic acid (ARC ART-1368) and 7.5 μM cold taurocholic acid (Sigma T4009) (maintaining 0.2% final DMSO concentration). For mouse LBAT, incubation mix was prepared by adding test inhibitor dilutions (3-fold serial dilution in DMSO, 10 points) in MEM-alpha (without FBS) containing 0.3 μM 3H-taurocholic acid and 25 μM cold taurocholic acid maintaining 0.2% final DMSO concentration).
50 μL of incubation mix containing test inhibitors was then added to the wells (in duplicate) and the plates were incubated for 20 minutes in a CO2 incubator at 37° C. After incubation, the reaction was stopped by keeping the plates on ice water mix for 2-3 minutes and then the incubation mix was aspirated completely from the wells. The wells were washed two times with 250 μL of chilled unlabelled 1 mM taurocholic acid dissolved in HEPES (Gibco 15630080)-buffered (10 mM) HBSS (Gibco 14175079) (pH 7.4). The plates were tapped against a paper towel after every wash to ensure maximum removal of blocking buffer.
as §1, with “well, with normal plate orientation).” for “well).”
as §2

Row | Compound | IC50 (Human IBAT) | Papp A→B at 120 min, 10 μM [1] | Papp B→A at 120 min, 10 μM [1] | IC50 (Human LBAT)
1 | CCCCC1(CCCC)CN(c2ccc(OC)cc2)c2cc(SC)c(OCC(=O)O)cc2S(=O)(=O)C1 [Example 2, 2-((3,3-dibutyl-5-(4-methoxyphenyl)-7-(methylthio)-1,1-dioxido-2,3,4,5-tetrahydro-1,5-benzothiazepin-8-yl)oxy)acetic Acid] | 38 nM | 4.3 ×10⁻⁶ cm/s | 6.6 ×10⁻⁶ cm/s | –
2 | CCCCC1(CCCC)CN(c2ccccc2)c2cc(C#N)c(OCC(=O)O)cc2S(=O)(=O)C1 [Example 11, 2-((3,3-dibutyl-7-cyano-1,1-dioxido-5-phenyl-2,3,4,5-tetrahydro-1,5-benzothiazepin-8-yl)oxy)acetic Acid] | 281 nM | – | – | 2530 nM
3 | CCCCC1(CCCC)CN(c2ccc(C(F)(F)F)cc2)c2cc(SC)c(OCC(=O)O)cc2S(=O)(=O)C1 [Example 6, 2-((3,3-dibutyl-7-(methylthio)-1,1-dioxido-5-(4-(trifluoromethyl)phenyl)-2,3,4,5-tetrahydro-1,5-benzothiazepin-8-yl)oxy)acetic Acid] | 59 nM | – | – | 3610 nM
4 | CCCCC1(CC)CN(c2ccc(O)cc2)c2cc(SC)c(OCC(=O)O)cc2S(=O)(=O)C1 (single isomer, unassigned) [Example 20, 2-((3-butyl-3-ethyl-5-(4-hydroxyphenyl)-7-(methylthio)-1,1-dioxido-2,3,4,5-tetrahydro-1,5-benzothiazepin-8-yl)oxy)acetic Acid] | 14 nM | – | – | 751 nM
5 | CCCCC1(CC)CN(c2ccc(F)cc2)c2cc(SC)c(OCC(=O)O)cc2S(=O)(=O)C1 (single isomer, unassigned) [Example 15, 2-((3-butyl-3-ethyl-5-(4-fluorophenyl)-7-(methylthio)-1,1-dioxido-2,3,4,5-tetrahydro-1,5-benzothiazepin-8-yl)oxy)acetic acid] | 2.4 nM | 8.7 ×10⁻⁶ cm/s | 12.9 ×10⁻⁶ cm/s | –
6 | CCCCC1(CCCC)CN(c2ccccc2)c2cc(N(C)C)c(OCC(=O)O)cc2S(=O)(=O)C1 [Example 1, 2-((3,3-dibutyl-7-(dimethylamino)-1,1-dioxido-5-phenyl-2,3,4,5-tetrahydro-1,5-benzothiazepin-8-yl)oxy)acetic Acid] | 24 nM | 3.2 ×10⁻⁶ cm/s | 9.4 ×10⁻⁶ cm/s | –
7 | CCCCC1(CCCC)CN(c2ccccc2)c2cc(F)c(OCC(=O)O)cc2S(=O)(=O)C1 [Example 10, 2-((3,3-dibutyl-7-fluoro-1,1-dioxido-5-phenyl-2,3,4,5-tetrahydro-1,5-benzothiazepin-8-yl)oxy)acetic Acid] | 179 nM | – | – | 1070 nM
8 | CCCCC1(CC)CN(c2ccccc2)c2cc(F)c(OCC(=O)O)cc2S(=O)(=O)C1 (stereo not drawn) [Example 12, 2-((3-butyl-3-ethyl-7-fluoro-1,1-dioxido-5-phenyl-2,3,4,5-tetrahydro-1,5-benzothiazepin-8-yl)oxy)acetic Acid] | 350 nM | – | – | 473 nM
9 | CCCCC1(CCCC)CN(c2ccccc2)c2cc(Cl)c(OCC(=O)O)cc2S(=O)(=O)C1 [Example 13, 2-((3,3-dibutyl-7-chloro-1,1-dioxido-5-phenyl-2,3,4,5-tetrahydro-1,5-benzothiazepin-8-yl)oxy)acetic Acid] | 268 nM | – | – | 1620 nM
